Experiments:
[1] = biological target: T1, Muscarinic acetylcholine receptor (Rattus norvegicus) (UniProt P08482+P08483+P08485+P08911+P10980); details: 1.0 uM
[2] = biological target: T1, Muscarinic acetylcholine receptor (Rattus norvegicus); details: 0.1 uM
[3] = biological target: T2, Muscarinic acetylcholine receptor M1 (Rattus norvegicus, UniProt P08482)
T2 sequence (P08482 whole entry): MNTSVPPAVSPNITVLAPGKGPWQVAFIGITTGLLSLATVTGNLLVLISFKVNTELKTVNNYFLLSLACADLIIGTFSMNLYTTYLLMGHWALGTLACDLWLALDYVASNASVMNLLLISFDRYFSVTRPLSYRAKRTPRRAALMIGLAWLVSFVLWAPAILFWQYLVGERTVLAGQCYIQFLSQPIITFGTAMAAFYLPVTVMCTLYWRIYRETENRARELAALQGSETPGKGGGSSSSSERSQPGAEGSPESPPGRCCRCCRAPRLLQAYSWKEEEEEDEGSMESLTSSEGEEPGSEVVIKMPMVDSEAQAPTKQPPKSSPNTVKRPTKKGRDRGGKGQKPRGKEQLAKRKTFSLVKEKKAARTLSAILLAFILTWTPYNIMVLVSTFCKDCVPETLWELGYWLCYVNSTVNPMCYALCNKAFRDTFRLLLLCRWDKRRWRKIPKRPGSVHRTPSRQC
Description: Compound was evaluated for the displacement of the muscarinic QNB in a genetically transformed rat cell line (m1c2) transfected with cloned m1 receptors (m1-QNBm1c2)

SK-N-SH [4] = tested on: SK-N-SH
[5] = biological target: T3, Muscarinic acetylcholine receptor M2 (Rattus norvegicus, UniProt P10980); assay: biochemical
T3 sequence (P10980 whole entry): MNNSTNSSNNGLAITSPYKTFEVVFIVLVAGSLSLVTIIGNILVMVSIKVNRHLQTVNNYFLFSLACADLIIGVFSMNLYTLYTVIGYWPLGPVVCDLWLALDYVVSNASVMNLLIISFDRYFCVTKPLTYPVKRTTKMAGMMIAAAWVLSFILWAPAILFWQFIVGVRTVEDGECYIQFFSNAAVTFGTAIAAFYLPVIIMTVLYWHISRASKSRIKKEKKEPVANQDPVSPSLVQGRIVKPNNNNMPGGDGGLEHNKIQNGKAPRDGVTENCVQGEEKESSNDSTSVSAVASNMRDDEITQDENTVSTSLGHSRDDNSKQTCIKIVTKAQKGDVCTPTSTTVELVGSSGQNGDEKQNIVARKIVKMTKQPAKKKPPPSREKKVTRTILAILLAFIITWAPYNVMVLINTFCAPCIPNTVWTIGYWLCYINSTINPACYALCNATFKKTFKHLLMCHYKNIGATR
Description: Compound was evaluated for the displacement of the muscarinic QNB in rat heart homogenate containing the pharmacologic M2 receptor (M2-QNB heart)

[6] = biological target: Muscarinic acetylcholine receptor
[7] = biological target: Muscarinic acetylcholine receptor; remark: listed apart in the source
Description: Compound was evaluated for its ability to displace muscarinic antagonist [3H]cis-methyldioxolane in rat cortical tissue (RQNB binding assay), at 1.0 uM concentration

SK-N-SH [8] = assay: Phosphoinositide (PI) turnover was assessed by the ability to stimulate [3H]- inositol phosphate accumulation in human SK-N-SH neuroblastoma cells relative to carbachol; format: functional

Compound | inhibition [1] [%] | inhibition [2] [%] | other results
O=C1CCCN1CC#CCN1CCCC1 [OXOTREMORINE] | – | – | IC50 [3]: 0.36 µM; PI turnover (SK-N-SH [4]): 33%; IC50 [5]: 0.86 µM
C[N+](C)(C)CCOC(N)=O.[Cl-] [CARBACHOL] | – | – | PI turnover (SK-N-SH [4]): 100%
CCCN1C(=O)OC[C@@H]1Cc1cn(C)cn1 | 10 | 2 | –
CCN1C(=O)OC[C@H]1Cc1cncn1C | 0 | 6 | –
CCCN1C(=O)OC[C@@H]1Cc1cncn1C | – | – | IC50 [6]: 73 µM; IC50 [7]: 3300 µM
CCN1C(=O)OC[C@@H]1Cc1cncn1C | – | – | IC50 [3]: 12.7 µM; IC50 [6]: 0.043 µM; IC50 [7]: 8.9 µM; PI turnover (SK-N-SH [8]): 16%; IC50 [5]: 30.9 µM

Continued, in another order:

inhibition [1] [%] | inhibition [2] [%] | Compound | other results
2 | 0 | CCN1C(=O)OC[C@H]1Cc1c[nH]cn1 | –
4 | 2 | CCCN1C(=O)OC[C@@H]1Cc1c[nH]cn1 | –
0 | 0 | CN1C(=O)OC[C@@H]1Cc1c[nH]cn1 | –
2 | 11 | CN1C(=O)OC[C@@H]1Cc1cncn1C | –
4 | 4 | CCN1C(=O)OC[C@@H]1Cc1c[nH]cn1 | –
1 | 0 | CCN1C(=O)OC[C@H]1Cc1cn(C)cn1 | –
